Assay results taken from ChEMBL document CHEMBL3885881, “DrugMatrix”.

Organism: Rattus norvegicus
Test: DrugMatrix - Regimen: Daily Repeat
Assay type: toxicity, organism-based, Sprague-Dawley
Design: regimen Daily Repeat, gender Male, age 6-8 weeks
Conditions: in vivo, po, route oral GAVAGE, vehicle 100 % WATER; for ABSOLUTE BASOPHIL / ABSOLUTE EOSINOPHIL / ABSOLUTE LYMPHOCYTE / ABSOLUTE MONOCYTE / ABSOLUTE SEGMENTED NEUTROPHIL / BASOPHIL / EOSINOPHIL / ERYTHROCYTE COUNT / HEMATOCRIT / HEMOGLOBIN / LEUKOCYTE COUNT / LYMPHOCYTE / MEAN CORPUSCULAR HEMOGLOBIN / MEAN CORPUSCULAR HEMOGLOBIN CONCENTRATION / MEAN CORPUSCULAR VOLUME / MONOCYTE / NEUTROPHIL / NUCLEATED RED BLOOD CELLS / PLATELET COUNT: tissue Blood; for ALANINE AMINOTRANSFERASE / ALBUMIN / ALKALINE PHOSPHATASE / ASPARTATE AMINOTRANSFERASE / BLOOD UREA NITROGEN / CARBON DIOXIDE / CHLORIDE / CHOLESTEROL / CREATINE PHOSPHOKINASE / CREATININE / GLUCOSE / LACTATE DEHYDROGENASE / LIPASE / PHOSPHORUS / POTASSIUM / SODIUM / TOTAL BILIRUBIN / TOTAL PROTEIN / URIC ACID: tissue Plasma
[1] = 28 mg/kg, 120 h, dose level Low, time 5 day
[2] = 100 mg/kg, 72 h, dose level High, time 3 day
[3] = 100 mg/kg, 120 h, dose level High, time 5 day

SMILES: Cn1cc[nH]c1=S [METHIMAZOLE]
- ABSOLUTE BASOPHIL [1]: 0 CELLS/uL
- ABSOLUTE EOSINOPHIL [1]: 0 CELLS/uL
- ABSOLUTE LYMPHOCYTE [1]: 6311.33 CELLS/uL
- ABSOLUTE MONOCYTE [1]: 62 CELLS/uL
- ABSOLUTE SEGMENTED NEUTROPHIL [1]: 560 CELLS/uL
- BASOPHIL [1]: 0%
- EOSINOPHIL [1]: 0%
- ERYTHROCYTE COUNT [1]: 5.37 x10E6/uL
- HEMATOCRIT [1]: 33.8%
- HEMOGLOBIN [1]: 13.17 G/DL
- LEUKOCYTE COUNT [1]: 6.93 x10E3/uL
- LYMPHOCYTE [1]: 90.67%
- MEAN CORPUSCULAR HEMOGLOBIN [1]: 24.57 pg
- MEAN CORPUSCULAR HEMOGLOBIN CONCENTRATION [1]: 38.93 G/DL
- MEAN CORPUSCULAR VOLUME [1]: 63.03 fL
- MONOCYTE [1]: 0.67%
- NEUTROPHIL [1]: 8.67%
- NUCLEATED RED BLOOD CELLS [1]: 0.33 /100WBC
- PLATELET COUNT [1]: 1274.33 x10E3/uL
- ALANINE AMINOTRANSFERASE [1]: 41.33 u/L
- ALBUMIN [1]: 4.13 G/DL
- ALKALINE PHOSPHATASE [1]: 368.67 u/L
- ASPARTATE AMINOTRANSFERASE [1]: 68.67 u/L
- BLOOD UREA NITROGEN [1]: 19.67 mg/dL
- CARBON DIOXIDE [1]: 30.33 mmol/L
- CHLORIDE [1]: 101 MEQ/L
- CHOLESTEROL [1]: 101.33 mg/dL
- CREATINE PHOSPHOKINASE [1]: 173 u/L
- CREATININE [1]: 0.18 mg/dL
- GLUCOSE [1]: 143.67 mg/dL
- LACTATE DEHYDROGENASE [1]: 143.67 u/L
- LIPASE [1]: 9 u/L
- PHOSPHORUS [1]: 10.27 mg/dL
- POTASSIUM [1]: 4.87 MEQ/L
- SODIUM [1]: 144.47 MEQ/L
- TOTAL BILIRUBIN [1]: 0.17 mg/dL
- TOTAL PROTEIN [1]: 6.43 G/DL
- URIC ACID [1]: 0.53 mg/dL
- ABSOLUTE BASOPHIL [2]: 0 CELLS/uL
- ABSOLUTE EOSINOPHIL [2]: 0 CELLS/uL
- ABSOLUTE LYMPHOCYTE [2]: 13500.67 CELLS/uL
- ABSOLUTE MONOCYTE [2]: 119.33 CELLS/uL
- ABSOLUTE SEGMENTED NEUTROPHIL [2]: 980 CELLS/uL
- BASOPHIL [2]: 0%
- EOSINOPHIL [2]: 0%
- ERYTHROCYTE COUNT [2]: 5.56 x10E6/uL
- HEMATOCRIT [2]: 35.97%
- HEMOGLOBIN [2]: 14.1 G/DL
- LEUKOCYTE COUNT [2]: 14.6 x10E3/uL
- LYMPHOCYTE [2]: 92.67%
- MEAN CORPUSCULAR HEMOGLOBIN [2]: 25.4 pg
- MEAN CORPUSCULAR HEMOGLOBIN CONCENTRATION [2]: 39.2 G/DL
- MEAN CORPUSCULAR VOLUME [2]: 64.73 fL
- MONOCYTE [2]: 1%
- NEUTROPHIL [2]: 6.33%
- NUCLEATED RED BLOOD CELLS [2]: 0.67 /100WBC
- PLATELET COUNT [2]: 1423.33 x10E3/uL
- ALANINE AMINOTRANSFERASE [2]: 46.33 u/L
- ALBUMIN [2]: 4.03 G/DL
- ALKALINE PHOSPHATASE [2]: 326.67 u/L
- ASPARTATE AMINOTRANSFERASE [2]: 72 u/L
- BLOOD UREA NITROGEN [2]: 11 mg/dL
- CARBON DIOXIDE [2]: 26 mmol/L
- CHLORIDE [2]: 103 MEQ/L
- CHOLESTEROL [2]: 84.67 mg/dL
- CREATINE PHOSPHOKINASE [2]: 581 u/L
- CREATININE [2]: 0.17 mg/dL
- GLUCOSE [2]: 154.33 mg/dL
- LACTATE DEHYDROGENASE [2]: 228.33 u/L
- LIPASE [2]: 9 u/L
- PHOSPHORUS [2]: 11.6 mg/dL
- POTASSIUM [2]: 6.41 MEQ/L
- SODIUM [2]: 143.17 MEQ/L
- TOTAL BILIRUBIN [2]: 0.17 mg/dL
- TOTAL PROTEIN [2]: 5.97 G/DL
- URIC ACID [2]: 1.63 mg/dL
- ABSOLUTE BASOPHIL [3]: 0 CELLS/uL
- ABSOLUTE EOSINOPHIL [3]: 40.33 CELLS/uL
- ABSOLUTE LYMPHOCYTE [3]: 11963 CELLS/uL
- ABSOLUTE MONOCYTE [3]: 169.33 CELLS/uL
- ABSOLUTE SEGMENTED NEUTROPHIL [3]: 727.33 CELLS/uL
- BASOPHIL [3]: 0%
- EOSINOPHIL [3]: 0.33%
- ERYTHROCYTE COUNT [3]: 5.44 x10E6/uL
- HEMATOCRIT [3]: 33.7%
- HEMOGLOBIN [3]: 13.17 G/DL
- LEUKOCYTE COUNT [3]: 12.9 x10E3/uL
- LYMPHOCYTE [3]: 93%
- MEAN CORPUSCULAR HEMOGLOBIN [3]: 24.23 pg
- MEAN CORPUSCULAR HEMOGLOBIN CONCENTRATION [3]: 39.1 G/DL
- MEAN CORPUSCULAR VOLUME [3]: 61.97 fL
- MONOCYTE [3]: 1.33%
- NEUTROPHIL [3]: 5.33%
- NUCLEATED RED BLOOD CELLS [3]: 0 /100WBC
- PLATELET COUNT [3]: 1288.67 x10E3/uL
- ALANINE AMINOTRANSFERASE [3]: 33.33 u/L
- ALBUMIN [3]: 3.97 G/DL
- ALKALINE PHOSPHATASE [3]: 316.33 u/L
- ASPARTATE AMINOTRANSFERASE [3]: 51.33 u/L
- BLOOD UREA NITROGEN [3]: 17.33 mg/dL
- CARBON DIOXIDE [3]: 21 mmol/L
- CHLORIDE [3]: 104.67 MEQ/L
- CHOLESTEROL [3]: 79.67 mg/dL
- CREATINE PHOSPHOKINASE [3]: 460 u/L
- CREATININE [3]: 0.19 mg/dL
- GLUCOSE [3]: 165.33 mg/dL
- LACTATE DEHYDROGENASE [3]: 433 u/L
- LIPASE [3]: 11.33 u/L
- PHOSPHORUS [3]: 10.1 mg/dL
- POTASSIUM [3]: 5.88 MEQ/L
- SODIUM [3]: 143.5 MEQ/L
- TOTAL BILIRUBIN [3]: 0.2 mg/dL
- TOTAL PROTEIN [3]: 6.17 G/DL
- URIC ACID [3]: 1.43 mg/dL
